# Measurements as given in PMC2841147, “The inhaled phosphodiesterase 4 inhibitor GSK256066 reduces allergen challenge responses in asthma” (Respiratory Research, 2010).
# Where two headings read alike, the source gives them in different places.
# Tests used:
# [1] = system: steroid naive atopic asthmatics; assay: Inhaled allergen challenge (EAR and LAR) after 7 days treatment; format: in vivo, human; conditions: inhaled 87.5 μg once daily for 7 days
# Method: (§1) This was a two centre, double-blind, randomised, placebo controlled, cross-over study. Eligible subjects were randomised to receive GSK256066 87.5 μg or matching placebo using an Accuhaler™ once daily for 7 days - see Fig 1. The washout period was 14 - 21 days between treatment periods. Dosing was performed under supervision at the sites on Day 1 and Day 7. On days 2-6 subjects were instructed to take the study medication at the same time of day, and were required to complete a diary card to document the time that medication was taken. Heart rate, blood pressure, ECGs, FEV1 and exhaled nitric oxide (FeNO) were measured pre-dose on days 1 and 7, and at 1 hr post-dose. On day 7, an inhaled allergen challenge was subsequently performed after the 1 hour post-dose FEV1 and FeNO measurements. Methacholine challenge was then performed at 24 hours post allergen challenge. Adverse events and beta agonist use were monitored throughout the study with the aid of diary cards.
# Bronchial challenges were performed as we have previously described using a Mefar Dosimeter (Mefar-Bologna). Allergen for skin prick tests (Soluprick SQ, Alk Abelló (UK) Ltd) was stored at 4°C; each subject was assessed for sensitivity to house dust mite, cat, grass pollen, and positive and negative controls. The allergen for inhalation was selected according to the largest skin test wheal (positive >3 mm) and clinical history. Fresh solutions of allergen were made up in 0.9% saline in doubling concentrations from 250 SQ-U/ml to 32 000 SQ-U/ml. At screening, incremental doses of allergen were inhaled until an early asthmatic response (EAR) was observed, defined as a fall in FEV1 of ≥ 20% from the post saline value, on at least one occasion, between 5 and 30 minutes after the final concentration of allergen. The late asthmatic response (LAR) was defined as a fall in FEV1 of ≥ 15% from the post saline value, on at least three occasions, two of which must be consecutive, between 4 and 10 hours after the final concentration of allergen. During the treatment periods, the total dose of allergen required to cause an EAR and LAR was administered as a single bolus dose.
# Minimum LAR was derived as the minimum FEV1 value over 4-10 hrs post allergen challenge. Minimum EAR was derived as the minimum FEV1 over 0-2 hrs post allergen challenge. Weighted mean LAR and EAR endpoints were derived by calculating the AUC over the relevant time interval using the linear trapezoidal rule and dividing by the time interval. […] Day 7 FEV1 data (pre-dose and 1 h post-dose) were also analysed using a mixed effects model, adjusting for the fixed effects treatment, period and Day 1 pre-dose FEV1 and the random effect subject. […]
# [2] = system: steroid naive atopic asthmatics; assay: Safety and tolerability (adverse events); format: in vivo, human; conditions: inhaled 87.5 mcg once per day for 7 days
# Method: as §1
# [3] = system: steroid naive atopic asthmatics; assay: Exhaled nitric oxide (FeNO); format: in vivo, human; conditions: for Exhaled nitric oxide: mean
# Method: as §1
# FeNO was measured using the Ecomedics AG analyser CLD 88 at a flow of 50 ml/s. Three acceptable readings were recorded from each subject and the mean was used for analysis.
# Minimum LAR was derived as the minimum FEV1 value over 4-10 hrs post allergen challenge. Minimum EAR was derived as the minimum FEV1 over 0-2 hrs post allergen challenge. Weighted mean LAR and EAR endpoints were derived by calculating the AUC over the relevant time interval using the linear trapezoidal rule and dividing by the time interval. The sample size was based on a power calculation using our previous allergen challenge data; in order to detect a 50% attenuation of the minimum LAR, with 90% power at the two-sided 5% significance level, 23 evaluable were required. Statistical analysis was performed on each of the absolute change from baseline LAR and EAR endpoints to compare GSK256066 with placebo. A mixed effects model was fitted with the factors treatment, period and Day 7 post-saline FEV1 as fixed effects and subject as a random effect. Absolute change from post-saline FEV1 data over planned relative time were obtained from a repeated measures statistical analysis, adjusting for the terms of period, treatment group, period-level post-saline baseline, subject-level post-saline baseline, planned relative time, treatment group by planned relative time interaction and period-level post-saline baseline by planned relative time interaction as fixed effects and subject as a random effect. Day 7 FEV1 data (pre-dose and 1 h post-dose) were also analysed using a mixed effects model, adjusting for the fixed effects treatment, period and Day 1 pre-dose FEV1 and the random effect subject. […] FeNO change from baseline ratio at all time points were analysed following a loge-transformation to compare GSK256066 with placebo. […]
# [4] = system: steroid naive atopic asthmatics; assay: Methacholine challenge 24 hours post allergen challenge; format: in vivo, human
# Method: as §1, with “cards. […]” for “cards.”
# Minimum LAR was derived as the minimum FEV1 value over 4-10 hrs post allergen challenge. […] Day 7 FEV1 data (pre-dose and 1 h post-dose) were also analysed using a mixed effects model, adjusting for the fixed effects treatment, period and Day 1 pre-dose FEV1 and the random effect subject. […] FeNO change from baseline ratio at all time points were analysed following a loge-transformation to compare GSK256066 with placebo. […]
# [5] = Plasma pharmacokinetics after inhalation (HPLC/MS/MS); format: in vivo, human; conditions: for Tlast / Tmax: median (range); for AUC(0-t): 87.5 ug
# Method: On days 1 and 7, blood samples were collected at pre-dose, 10 min, 30 min, 45 min and 1, 2, 3, 4, 6, 8, 10, 11, 12 and 24 hrs post dose for measurement of the levels of GSK256066 in plasma. […] These pharmacokinetic analyses were performed by protein precipitation, followed by HPLC/MS/MS. The lower limit of quantification (LLOQ) for GSK256066 and GSK614917 was 5 pg/mL, with an upper limit of quantification of 2000 pg/mL
# Values for the following pharmacokinetic were estimated directly from raw plasma concentration data: maximum plasma concentration (Cmax), time of maximum observed concentration (Tmax), and time of the last observable concentration (Tlast). Area under the plasma concentration-time curve from time zero to Tlast (AUC (0-t)) was estimated for subjects with at least 3 consecutive observable concentration values with the log up/linear down trapezoidal method using Winnonlin professional version 5.2 (Pharsight Corporation, Cary, NC, USA).
# [6] = system: steroid naive atopic asthmatics; assay: Lung function (FEV1) pre-dose and 1 hr post-dose; format: in vivo, human; conditions: for FEV1: mean; for FEV1 adjusted treatment difference GSK256066 vs placebo: adjusted mean (95% confidence intervals)
# Method: as §1
# Minimum LAR was derived as the minimum FEV1 value over 4-10 hrs post allergen challenge. Minimum EAR was derived as the minimum FEV1 over 0-2 hrs post allergen challenge. Weighted mean LAR and EAR endpoints were derived by calculating the AUC over the relevant time interval using the linear trapezoidal rule and dividing by the time interval. The sample size was based on a power calculation using our previous allergen challenge data; in order to detect a 50% attenuation of the minimum LAR, with 90% power at the two-sided 5% significance level, 23 evaluable were required. Statistical analysis was performed on each of the absolute change from baseline LAR and EAR endpoints to compare GSK256066 with placebo. A mixed effects model was fitted with the factors treatment, period and Day 7 post-saline FEV1 as fixed effects and subject as a random effect. Absolute change from post-saline FEV1 data over planned relative time were obtained from a repeated measures statistical analysis, adjusting for the terms of period, treatment group, period-level post-saline baseline, subject-level post-saline baseline, planned relative time, treatment group by planned relative time interaction and period-level post-saline baseline by planned relative time interaction as fixed effects and subject as a random effect. Day 7 FEV1 data (pre-dose and 1 h post-dose) were also analysed using a mixed effects model, adjusting for the fixed effects treatment, period and Day 1 pre-dose FEV1 and the random effect subject. Statistical analysis was performed on the log2-transformed values of the provocative concentration of methacholine required to produce a 20% reduction in FEV1 (PC20) to compare GSK256066 with placebo. A mixed effects model was fitted with the factors treatment and period treated as fixed effects and subject as a random effect. FeNO change from baseline ratio at all time points were analysed following a loge-transformation to compare GSK256066 with placebo. A mixed effects model was fitted with the fixed effects period, treatment group, subject-level loge-transformed baseline, period-level loge-transformed baseline, planned relative time, treatment group by planned relative time interaction term and period-level loge-transformed baseline by planned relative time interaction term and the random effect subject.
# PDE4 = conditions: cited from earlier work
# patients with COPD = system: patients with COPD; parameters: method as in PMID 19213793; conditions: inhaled, after 6 weeks of treatment; cited from earlier work
# [7] = parameters: method as in PMID 17192499; conditions: cited from earlier work
# asthmatic subjects = system: asthmatic subjects; parameters: method as in PMID 16083782; conditions: orally administered; cited from earlier work
compound,measurement,setting,value
COc1cccc(Nc2c(C(N)=O)cnc3c(C)cc(S(=O)(=O)c4cccc(C(=O)N(C)C)c4)cc23)c1 [GSK256066],EAR: inhibition of the fall in weighted mean FEV1 compared to placebo,"[1]; 0-2 hrs post allergen, p = 0.014",57.2%
same,LAR: attenuation of the fall in weighted mean FEV1 compared to placebo,"[1]; 4-10 hrs post allergen, p = 0.005",34.3%
same,EAR: inhibition of the fall in minimum FEV1 compared to placebo,"[1]; minimum FEV1 0-2 hrs post allergen, p = 0.014",40.9%
same,LAR: attenuation of the fall in minimum FEV1 compared to placebo,"[1]; minimum FEV1 4-10 hrs post allergen, p = 0.007",26.2%
same,Nausea and/or gastro-intestinal side effects,[2],lack of nausea and/or gastro-intestinal side effects
same,Tolerability / adverse effects,[2],well tolerated
same,Exhaled nitric oxide,[3]; Day 1 Pre-dose,39.9 (31.0 to 51.3) ppb
same,Exhaled nitric oxide adjusted treatment ratio GSK256066 vs placebo,"[3]; Day 7 1 hr post-dose, adjusted mean (95% confidence intervals)",1.03 (0.88 to 1.20)
same,Exhaled nitric oxide,[3]; Day 7 1 hr post-dose,36.1 (28.1 to 46.3) ppb
same,Exhaled nitric oxide,[3]; Day 7 Pre-dose,34.7 (26.7 to 45.0) ppb
same,"Methacholine PC20 doubling dose difference vs placebo, geometric mean (95% CI)",[4],-0.31 (-1.18 to 0.57)
same,Methacholine PC20,"[4]; after 7 days treatment, placebo 0.39",0.31 mg/mL
same,Subjects with plasma concentrations above the LLOQ,"[5]; Day 1, LLOQ 5 pg/mL",18 out of 22
same,Cmax,"[5]; Day 1, inhaled 87.5 μg, plasma, geometric mean (CV%), N = 18",18.3 (68) Pg/mL
same,Tlast,[5]; Day 1,3.0 (0.5-6.0) h
same,Subjects with drug levels below the LLOQ after 4 hrs post dose,"[5]; Day 1, of the 22 subjects, LLOQ 5 pg/mL",18 subjects
same,Subjects with drug levels below the LLOQ after 4 hrs post dose,"[5]; Day 7, LLOQ 5 pg/mL",10 of the 19
same,Subjects with levels above the LLOQ after 12 hrs,"[5]; Day 7, LLOQ 5 pg/mL",1 subject
same,Subjects with plasma concentrations above the LLOQ,"[5]; Day 7, LLOQ 5 pg/mL",17 out of 19
same,Cmax,"[5]; Day 7, inhaled 87.5 μg once daily, plasma, geometric mean (CV%), n = 17",17.3 (63) Pg/mL
same,Tlast,[5]; Day 7,4.0 (1.0-24) h
same,Tmax,[5]; Day 7,1.0 (0.17-11.0) h
same,Tlast range in this study,[5]; days 1 and 7,0.5 to 24 h
same,AUC(0-t),"[5]; human, plasma, inhaled or intranasal, Day 1, inhaled 87.5 μg, plasma, geometric mean (CV%), N = 18",0.0368 ng·h/mL
same,AUC(0-t),"[5]; human, plasma, inhaled or intranasal, Day 7, inhaled 87.5 μg once daily, plasma, geometric mean (CV%), n = 17",0.0648 ng·h/mL
same,Cmax,"[5]; human, plasma, inhaled or intranasal, 87.5 μg, on both days 1 and 7, inhaled, read-out: Mean Cmax",< 0.02 ng/mL
same,Tmax,"[5]; human, plasma, inhaled, 87.5 μg, Day 1, read-out: Tmax",1 h
same,FEV1,[6]; Day 1 Pre-dose,3.29 (2.88 to 3.69) L
same,FEV1 adjusted treatment difference GSK256066 vs placebo,[6]; Day 7 1 hr post-dose,0.09 (-0.08 to 0.27) L
same,FEV1,[6]; Day 7 1 hr post-dose,3.47 (3.04 to 3.90) L
same,FEV1 adjusted treatment difference GSK256066 vs placebo,[6]; Day 7 Pre-dose,0.09 (-0.03 to 0.20) L
same,FEV1,[6]; Day 7 Pre-dose,3.36 (2.94 to 3.79) L
same,Affinity and binding mode at PDE4,PDE4,"very high affinity, slow- and tight-binding inhibitor"
same,"Selectivity for PDE4 over other PDEs such as 1, 2, 3, 5, 6 and 7",PDE4,highly selective
"Cc1ccc(O)c(C(=O)N[C@H]2CC[C@@H](NC(=O)c3cc(F)cnc3Oc3ccc(F)c(F)c3)CC2)c1 [UK-500,001]",Effect on FEV1,patients with COPD,no effect
O=C(Nc1c(Cl)c[n+]([O-])cc1Cl)c1ccc(OC(F)F)c(OCC2CC2)c1 [roflumilast N-Oxide],Plasma levels of the active metabolite compared with roflumilast Cmax,[7]; after oral roflumilast,even higher
O=C(Nc1c(Cl)cncc1Cl)c1ccc(OC(F)F)c(OCC2CC2)c1 [roflumilast],Inhibition of the maximal fall in the EAR,asthmatic subjects,14%
same,Inhibition of the maximal fall in the LAR,asthmatic subjects,33%
same,Mean Cmax,[7]; administered orally,"over 2,000 pg/ml"
